Measured values: patent US9458105B2, “Inhibitors of Bruton's tyrosine kinase” (Hoffmann-La Roche Inc., priority 2012, dated 2016)

Biological target: Bruton's Tyrosine Kinase (inactivated state) (Homo sapiens (Human), UniProt Q06187)
Assay: Bruton's Tyrosine Kinase (BTK) Inhibition TR-FRET (Time Resolved FRET) competition assay
Assay type: binding
Details: BTK-Eu / Kinase Tracer 178 competition, incubated 18-24 h at 14° C.
Method: Bruton's Tyrosine Kinase (BTK) Inhibition TR-FRET (Time Resolved FRET) Assay
This BTK competition assay measures compound potency (IC50) for the inactivated state of Bruton's Tyrosine Kinase using FRET (Forster/Fluorescence Resonance Energy Transfer) technology. The BTK-Eu complex was incubated on ice one hour prior to use at a starting concentration of 50 nM BTK-Bioease™: 10 nM Eu-streptavidin (Perkin-Elmer Catalog #AD0062). The assay buffer consisted of 20 mM HEPES (pH 7.15), 0.1 mM DTT, 10 mM MgCl2, 0.5 mg/ml BSA with 3% Kinase Stabilizer (Fremont Biosolutions, Catalog #STB-K02). After 1 h, the reaction mixture from above was diluted 10 fold in assay buffer to make 5 nM BTK: 1 nM Eu-Streptavidin complex (donor fluorophore). 18 μl of a mixture of 0.11 nM BTK-Eu and 0.11 nM Kinase Tracer 178 (Invitrogen, Catalog #PV5593,) with BTK-Eu alone as no negative control, was then dispensed into 384-well flat bottom plates (Greiner, 784076). Compounds to be tested in assay were prepared as 10× concentrations and serial dilution in half-log increments was performed in DMSO so as to generate 10 point curves. To initiate the FRET reaction, compounds prepared as 10× stock in DMSO was added to the plates and the plates were incubated 18-24 h at 14° C.
After the incubation the plates were read on a BMG Pherastar Fluorescent plate reader (or equivalent) and used to measure the emission energy from the europium donor fluorophore (620 nm emission) and the FRET (665 nm emission). The negative control well values were averaged to obtain the mean minimum. The positive “no inhibitor” control wells were averaged to obtain the mean maximum. Percent of maximal FRET was calculated using following equation: % max FRET=100×[(FSRcmpd−FSRmean min)/(FSRmean max−FSRmean min)]
where FSR=FRET Signal ratio. % Max FRET curves were plotted in Activity Base (Excel) and the IC50(%), hill slope, z′ and % CV were determined. The mean IC50 and standard deviation will be derived from duplicate curves (singlet inhibition curves from two independent dilutions) using Microsoft Excel.
Representative compound data for this assay are listed below in Table II.

Sequence of Bruton's Tyrosine Kinase (inactivated state) (Q06187 whole entry): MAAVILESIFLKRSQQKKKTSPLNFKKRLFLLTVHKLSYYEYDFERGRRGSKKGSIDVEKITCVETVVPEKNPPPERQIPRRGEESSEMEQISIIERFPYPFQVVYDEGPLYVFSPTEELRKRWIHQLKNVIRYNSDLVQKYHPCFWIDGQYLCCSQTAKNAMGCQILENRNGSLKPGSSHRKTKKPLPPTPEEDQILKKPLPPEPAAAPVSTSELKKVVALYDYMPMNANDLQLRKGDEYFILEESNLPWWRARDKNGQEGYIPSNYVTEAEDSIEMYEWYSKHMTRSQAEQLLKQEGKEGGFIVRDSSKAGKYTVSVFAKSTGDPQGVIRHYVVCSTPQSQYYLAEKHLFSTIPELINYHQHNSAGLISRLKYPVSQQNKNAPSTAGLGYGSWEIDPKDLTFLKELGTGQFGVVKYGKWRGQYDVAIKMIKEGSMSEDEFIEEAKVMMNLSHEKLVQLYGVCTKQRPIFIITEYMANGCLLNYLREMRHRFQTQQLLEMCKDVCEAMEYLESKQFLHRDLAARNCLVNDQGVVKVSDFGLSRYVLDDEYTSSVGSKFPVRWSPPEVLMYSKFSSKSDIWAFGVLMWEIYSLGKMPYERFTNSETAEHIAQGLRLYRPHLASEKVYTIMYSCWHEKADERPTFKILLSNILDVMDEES

Structure (SMILES) | IC50 [µM]
CC(C)(C)c1cc(F)c2c(=O)n(Cc3ccc(-c4cc[nH]c(=O)c4)cc3F)ncc2c1 [Compound I-2, 6-tert-Butyl-8-fluoro-2-[2-fluoro-4-(2-oxo-1,2-dihydro-pyridin-4-yl)-benzyl]-2H-phthalazin-1-one] | 0.983
CC(C)(C)c1cc(F)c2c(=O)n(Cc3c(F)cc(-c4cc[nH]c(=O)c4)cc3F)ncc2c1 [Compound I-4, 6-tert-Butyl-2-[2,6-difluoro-4-(2-oxo-1,2-dihydro-pyridin-4-yl)-benzyl]-8-fluoro-2H-phthalazin-1-one] | 13.3
Cn1cc(-c2cc(-c3ccc(Cn4ncc5cc(C(C)(C)C)cc(F)c5c4=O)c(F)c3)cc(=O)[nH]2)cn1 [Compound I-6, 6-tert-Butyl-8-fluoro-2-{2-fluoro-4-[6-(1-methyl-1H-pyrazol-4-yl)-2-oxo-1,2-dihydro-pyridin-4-yl]-benzyl}-2H-phthalazin-1-one] | 0.0142
CC(C)(C)c1cc(F)c2c(=O)n(Cc3cc(CO)c(-c4cc[nH]c(=O)c4)cc3F)ncc2c1 [Compound I-9, 6-tert-Butyl-8-fluoro-2-[2-fluoro-5-hydroxymethyl-4-(2-oxo-1,2-dihydro-pyridin-4-yl)-benzyl]-2H-phthalazin-1-one] | 52.3
Cn1cc(-c2cc(-c3ccc(CN4Cc5cc(C(C)(C)C)sc5C4=O)c(F)c3)cc(=O)[nH]2)cn1 [Compound I-10, 2-tert-Butyl-5-{2-fluoro-4-[6-(1-methyl-1H-pyrazol-4-yl)-2-oxo-1,2-dihydro-pyridin-4-yl]-benzyl}-4,5-dihydro-thieno[2,3-c]pyrrol-6-one] | 0.00711

Continued, values first:

IC50 [µM] | Structure (SMILES)
3.32 | CC(C)(C)c1cc(F)c2c(=O)n(Cc3ccc(-c4cc[nH]c(=O)c4)cc3)ncc2c1 [Compound I-1, 6-tert-Butyl-8-fluoro-2-[4-(2-oxo-1,2-dihydro-pyridin-4-yl)-benzyl]-2H-phthalazin-1-one]
0.366 | CC(C)(C)c1cc(F)c2c(=O)n(-c3cccc(-c4cc[nH]c(=O)c4)c3CO)ncc2c1 [Compound I-3, 6-tert-Butyl-8-fluoro-2-[2-hydroxymethyl-3-(2-oxo-1,2-dihydro-pyridin-4-yl)-phenyl]-2H-phthalazin-1-one]
3.14 | CC(C)(C)c1cc(F)c2c(=O)n(Cc3ccc(-c4cc[nH]c(=O)c4)cc3CO)ncc2c1 [Compound I-5, 6-tert-Butyl-8-fluoro-2-[2-hydroxymethyl-4-(2-oxo-1,2-dihydro-pyridin-4-yl)-benzyl]-2H-phthalazin-1-one]
6.91 | Cc1c(NC(=O)c2ccc(C(C)(C)C)cc2)cccc1-c1cc[nH]c(=O)c1 [Compound I-7, 4-tert-Butyl-N-[2-methyl-3-(2-oxo-1,2-dihydro-pyridin-4-yl)-phenyl]-benzamide]
> 100 | CC(C)(C)c1cc(F)c2c(=O)n(Cc3ccc(-c4cc[nH]c(=O)c4)c(CO)c3)ncc2c1 [Compound I-8, 6-tert-Butyl-8-fluoro-2-[3-hydroxymethyl-4-(2-oxo-1,2-dihydro-pyridin-4-yl)-benzyl]-2H-phthalazin-1-one]
